Measurements reported in PubChem BioAssay AID2060489 (Molecular Pharmacology Branch, DTP, NCI, 2025).

Tested on: 922993-354-T-J3-PDC complex spheroids, viability
Assay: Anticancer human tumor 922993-354-T-J3-PDC patient-derived endometrial carcinoma cell line growth inhibition [GQUAD]
Settings: for IC50: curve of first compound; for viability, T/C: stronger effect = lower value
From the text: DNA G-quadruplex Stabilizer Agents in Combinations in Complex Spheroids
A high-throughput screen of multi-cell type tumor spheroids was designed to identify active combinations of DNA G-quadruplex stabilizer agents and targeted small molecules. Complex spheroids include a stromal component modeled by human endothelial cells (HUVEC) and fibroblasts modeled by human mesenchymal stem cells (MSCs). The concentration ranges selected for each drug and investigational agent were based upon clinically achievable concentrations if the clinical Cmax of the agent was known.
Compounds. The drugs and investigational agents: pidnarulex (CX-5461; NSC782164), APTO-253 (NSC789042), BRACO-19 (NSC847499), peposertib (NSC802822), ceralasertib (NSC780249), elimusertib (NSC800525), camonsertib (NSC841442), AZD-1390 (NSC803789), olaparib (NSC753686), talazoparib (NSC767125), ART-558 (NSC835418), sotorasib (NSC818433), MRTX-1133 (NSC836407), SN-38 (NSC673596), topotecan (NSC609699), etoposide (NSC141540), doxorubicin (NSC123127), gemcitabine (NSC613327), 5-fluorouracil (NSC19893), paclitaxel (NSC125973), vemurafenib (NSC761431), panobinostat (NSC761190), R-306465 (JNJ-16241199; NSC773264), adavosertib (NSC754352), TP-3654 (NSC805149), carboplatin (NSC241240), KSQ-4279 (NSC840948), and staurosporine (NSC755774) were obtained from the National Cancer Institute (NCI) Developmental Therapeutics Program Chemical Repository (34). The FDA-approved anticancer drug set is available from the NCI Developmental Therapeutics Program. […] The stock solutions were prepared in dimethyl sulfoxide (DMSO, Sigma-Aldrich, St. Louis, MO, cat. D2650) at 800-fold the tested concentration and stored at -70 degrees C prior to their use. All drugs and investigational agents were tested over a range starting from a high concentration at or near the clinical Cmax and decreasing in half-log increments. If the clinical Cmax for an agent had not been determined, the highest concentration tested was 10 microM.
2.3 Cell Culture. All cells were maintained in an incubator at 37 degrees C and 5% CO2 with 95% humidity. The PDC lines were cultured according to standard operating procedures established by the NCI PDMR. All PDCs were thawed and cultured in Matrigel-coated flasks prepared with a working solution of 1X Ham's F-12 nutrient mix, without supplementation (Invitrogen, cat. 11765054), 100 U/mL penicillin-streptomycin (Invitrogen, cat. 15140122), and 2.5% Matrigel (Corning Inc., cat. 354248) for the first three passages. The 857933-349-R-J2-PDC line was cultured in 6C/Colon 1B media, which includes advanced DMEM/F-12 (Thermo Fisher Scientific, cat. 12634028), 10 mM HEPES (Thermo Fisher Scientific, cat. 15630080), 1X GlutaMAX supplement (Thermo Fisher Scientific, cat. 35050061), 0.1 mg/mL primocin (InvivoGen, cat. ant-pm-2), 10% defined fetal bovine serum, heat inactivated (HyClone Laboratories Inc., cat. SH30070.03HI), 50% L-WRN conditioned media (ATCC, cat. CRL-3276), 1.25 mM N-Acetyl-L-cysteine (Sigma-Aldrich, cat. A9165), 10 mM nicotinamide (Sigma-Aldrich, cat. N0636), 1X B-27 supplement (Thermo Fisher Scientific, cat. 17504044), 1X N-2 supplement (Thermo Fisher Scientific, cat. 17502048), 10 microM Y-27632 dihydrochloride (Tocris Bioscience, cat. 1254), and 50 ng/mL human EGF recombinant protein (Thermo Fisher Scientific, cat. PHG0311). The 485176-168-R4-J1-PDC line was cultured in Panc media, which includes all 6C/Colon 1B media components plus 100 ng/mL human FGF-10 (Thermo Fisher Scientific, cat. 100-26), 500 nM SB-431542 (Selleckchem, cat. S1067), and gastrin (Tocris, cat. 3006).
[…]

[1] = second compound 0.0316 µM, first compound 0.000999 µM
[2] = second compound 0.0316 µM, first compound 0.00316 µM
[3] = second compound 0.0316 µM, first compound 0.00999 µM
[4] = second compound 0.0316 µM, first compound 0.0316 µM
[5] = second compound 0.0316 µM, first compound 0.0999 µM
[6] = second compound 0.0316 µM, first compound 0.316 µM
[7] = second compound 0.1 µM, first compound 0.000999 µM
[8] = second compound 0.1 µM, first compound 0.00316 µM
[9] = second compound 0.1 µM, first compound 0.00999 µM
[10] = second compound 0.1 µM, first compound 0.0316 µM
[11] = second compound 0.1 µM, first compound 0.0999 µM
[12] = second compound 0.1 µM, first compound 0.316 µM
[13] = second compound 0.316 µM, first compound 0.000999 µM
[14] = second compound 0.316 µM, first compound 0.00316 µM
[15] = second compound 0.316 µM, first compound 0.00999 µM
[16] = second compound 0.316 µM, first compound 0.0316 µM
[17] = second compound 0.316 µM, first compound 0.0999 µM
[18] = second compound 0.316 µM, first compound 0.316 µM
[19] = second compound 1 µM, first compound 0.000999 µM
[20] = second compound 1 µM, first compound 0.00316 µM
[21] = second compound 1 µM, first compound 0.00999 µM
[22] = second compound 1 µM, first compound 0.0316 µM
[23] = second compound 1 µM, first compound 0.0999 µM
[24] = second compound 1 µM, first compound 0.316 µM
[25] = second compound 3.16 µM, first compound 0.000999 µM
[26] = second compound 3.16 µM, first compound 0.00316 µM
[27] = second compound 3.16 µM, first compound 0.00999 µM
[28] = second compound 3.16 µM, first compound 0.0316 µM
[29] = second compound 3.16 µM, first compound 0.0999 µM
[30] = second compound 3.16 µM, first compound 0.316 µM
[31] = second compound 10 µM, first compound 0.000999 µM
[32] = second compound 10 µM, first compound 0.00316 µM
[33] = second compound 10 µM, first compound 0.00999 µM
[34] = second compound 10 µM, first compound 0.0316 µM
[35] = second compound 10 µM, first compound 0.0999 µM
[36] = second compound 10 µM, first compound 0.316 µM
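Note: spheroids exposed to compounds for seven days.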
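Throughout, for viability, T/C: 100% = DMSO vehicle control viability.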

CCc1c2c(nc3ccc(O)cc13)-c1cc3c(c(=O)n1C2)COC(=O)[C@]3(O)CC + Cc1[nH]c2ccc(F)cc2c1-c1nc2c3cccnc3c3ncccc3c2[nH]1
IC50 (second compound 0.0316 µM): 7.56 nM
IC50 (second compound 0.1 µM): 8.08 nM
IC50 (second compound 0.316 µM): 6.62 nM
IC50 (second compound 1 µM): 8.02 nM
IC50 (second compound 3.16 µM): 7.57 nM
IC50 (second compound 10 µM): 6.77 nM
viability, T/C [1]: 91.8%
viability, T/C [2]: 68.3%
viability, T/C [3]: 48.7%
viability, T/C [4]: 22.1%
viability, T/C [5]: 25.9%
viability, T/C [6]: 32.9%
viability, T/C [7]: 103%
viability, T/C [8]: 81.9%
viability, T/C [9]: 44.2%
viability, T/C [10]: 24.4%
viability, T/C [11]: 25.4%
viability, T/C [12]: 33%
viability, T/C [13]: 119%
viability, T/C [14]: 76.1%
viability, T/C [15]: 36.6%
viability, T/C [16]: 23.4%
viability, T/C [17]: 24.6%
viability, T/C [18]: 36.5%
viability, T/C [19]: 101%
viability, T/C [20]: 82.4%
viability, T/C [21]: 43.4%
viability, T/C [22]: 24.3%
viability, T/C [23]: 22.6%
viability, T/C [24]: 32.1%
viability, T/C [25]: 105%
viability, T/C [26]: 67.2%
viability, T/C [27]: 53.6%
viability, T/C [28]: 15.6%
viability, T/C [29]: 31.4%
viability, T/C [30]: 28.9%
viability, T/C [31]: 102%
viability, T/C [32]: 65.4%
viability, T/C [33]: 48.5%
viability, T/C [34]: 18.8%
viability, T/C [35]: 22.9%
viability, T/C [36]: 33.6%

Cc1[nH]c2ccccc2c1CCNCc1ccc(/C=C/C(=O)NO)cc1 + Cc1[nH]c2ccc(F)cc2c1-c1nc2c3cccnc3c3ncccc3c2[nH]1
IC50 (second compound 0.0316 µM): > 316 nM
IC50 (second compound 0.1 µM): > 316 nM
IC50 (second compound 0.316 µM): > 316 nM
IC50 (second compound 1 µM): > 316 nM
IC50 (second compound 3.16 µM): > 316 nM
IC50 (second compound 10 µM): > 316 nM
viability, T/C [1]: 95.9%
viability, T/C [2]: 87%
viability, T/C [3]: 100%
viability, T/C [4]: 77.6%
viability, T/C [5]: 75.6%
viability, T/C [6]: 61.3%
viability, T/C [7]: 94.1%
viability, T/C [8]: 100%
viability, T/C [9]: 85.3%
viability, T/C [10]: 83.3%
viability, T/C [11]: 79.3%
viability, T/C [12]: 55.8%
viability, T/C [13]: 96.2%
viability, T/C [14]: 93.5%
viability, T/C [15]: 91%
viability, T/C [16]: 81.2%
viability, T/C [17]: 88.3%
viability, T/C [18]: 66.9%
viability, T/C [19]: 96.3%
viability, T/C [20]: 92.2%
viability, T/C [21]: 115%
viability, T/C [22]: 84%
viability, T/C [23]: 100%
viability, T/C [24]: 50.6%
viability, T/C [25]: 93.5%
viability, T/C [26]: 80.6%
viability, T/C [27]: 80%
viability, T/C [28]: 79.1%
viability, T/C [29]: 95.4%
viability, T/C [30]: 71.8%
viability, T/C [31]: 82.6%
viability, T/C [32]: 109%
viability, T/C [33]: 88.2%
viability, T/C [34]: 82.8%
viability, T/C [35]: 112%
viability, T/C [36]: 70.3%
